From patent publication US10246426B2, “Triazole compounds as T-type calcium channel blockers” (IDORSIA PHARMACEUTICALS LTD, priority 2014, dated 2019)

Target: Cav3.2 (Homo sapiens, UniProt O95180)
Experiment: Calcium flux FLIPR assay, HEK293 cells recombinantly expressing Cav3.2
Format: cell-based
Conditions: Cav3.2-channel, Ca2+ entry stimulated by 10 mM CaCl2
How it was run: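 Fluo-4-loaded HEK293 cells stably expressing Cav3.2, seeded overnight at 37 °C; compounds diluted in TEAC buffer (pH 7.2) and preincubated 3 min before Ca2+ entry triggered with CaCl2 at 10 mM final. Area under FLIPR fluorescence trace fitted sigmoidally; IC50 relative to vehicle signal.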

Chain of Cav3.2 (O95180 whole entry, looked up): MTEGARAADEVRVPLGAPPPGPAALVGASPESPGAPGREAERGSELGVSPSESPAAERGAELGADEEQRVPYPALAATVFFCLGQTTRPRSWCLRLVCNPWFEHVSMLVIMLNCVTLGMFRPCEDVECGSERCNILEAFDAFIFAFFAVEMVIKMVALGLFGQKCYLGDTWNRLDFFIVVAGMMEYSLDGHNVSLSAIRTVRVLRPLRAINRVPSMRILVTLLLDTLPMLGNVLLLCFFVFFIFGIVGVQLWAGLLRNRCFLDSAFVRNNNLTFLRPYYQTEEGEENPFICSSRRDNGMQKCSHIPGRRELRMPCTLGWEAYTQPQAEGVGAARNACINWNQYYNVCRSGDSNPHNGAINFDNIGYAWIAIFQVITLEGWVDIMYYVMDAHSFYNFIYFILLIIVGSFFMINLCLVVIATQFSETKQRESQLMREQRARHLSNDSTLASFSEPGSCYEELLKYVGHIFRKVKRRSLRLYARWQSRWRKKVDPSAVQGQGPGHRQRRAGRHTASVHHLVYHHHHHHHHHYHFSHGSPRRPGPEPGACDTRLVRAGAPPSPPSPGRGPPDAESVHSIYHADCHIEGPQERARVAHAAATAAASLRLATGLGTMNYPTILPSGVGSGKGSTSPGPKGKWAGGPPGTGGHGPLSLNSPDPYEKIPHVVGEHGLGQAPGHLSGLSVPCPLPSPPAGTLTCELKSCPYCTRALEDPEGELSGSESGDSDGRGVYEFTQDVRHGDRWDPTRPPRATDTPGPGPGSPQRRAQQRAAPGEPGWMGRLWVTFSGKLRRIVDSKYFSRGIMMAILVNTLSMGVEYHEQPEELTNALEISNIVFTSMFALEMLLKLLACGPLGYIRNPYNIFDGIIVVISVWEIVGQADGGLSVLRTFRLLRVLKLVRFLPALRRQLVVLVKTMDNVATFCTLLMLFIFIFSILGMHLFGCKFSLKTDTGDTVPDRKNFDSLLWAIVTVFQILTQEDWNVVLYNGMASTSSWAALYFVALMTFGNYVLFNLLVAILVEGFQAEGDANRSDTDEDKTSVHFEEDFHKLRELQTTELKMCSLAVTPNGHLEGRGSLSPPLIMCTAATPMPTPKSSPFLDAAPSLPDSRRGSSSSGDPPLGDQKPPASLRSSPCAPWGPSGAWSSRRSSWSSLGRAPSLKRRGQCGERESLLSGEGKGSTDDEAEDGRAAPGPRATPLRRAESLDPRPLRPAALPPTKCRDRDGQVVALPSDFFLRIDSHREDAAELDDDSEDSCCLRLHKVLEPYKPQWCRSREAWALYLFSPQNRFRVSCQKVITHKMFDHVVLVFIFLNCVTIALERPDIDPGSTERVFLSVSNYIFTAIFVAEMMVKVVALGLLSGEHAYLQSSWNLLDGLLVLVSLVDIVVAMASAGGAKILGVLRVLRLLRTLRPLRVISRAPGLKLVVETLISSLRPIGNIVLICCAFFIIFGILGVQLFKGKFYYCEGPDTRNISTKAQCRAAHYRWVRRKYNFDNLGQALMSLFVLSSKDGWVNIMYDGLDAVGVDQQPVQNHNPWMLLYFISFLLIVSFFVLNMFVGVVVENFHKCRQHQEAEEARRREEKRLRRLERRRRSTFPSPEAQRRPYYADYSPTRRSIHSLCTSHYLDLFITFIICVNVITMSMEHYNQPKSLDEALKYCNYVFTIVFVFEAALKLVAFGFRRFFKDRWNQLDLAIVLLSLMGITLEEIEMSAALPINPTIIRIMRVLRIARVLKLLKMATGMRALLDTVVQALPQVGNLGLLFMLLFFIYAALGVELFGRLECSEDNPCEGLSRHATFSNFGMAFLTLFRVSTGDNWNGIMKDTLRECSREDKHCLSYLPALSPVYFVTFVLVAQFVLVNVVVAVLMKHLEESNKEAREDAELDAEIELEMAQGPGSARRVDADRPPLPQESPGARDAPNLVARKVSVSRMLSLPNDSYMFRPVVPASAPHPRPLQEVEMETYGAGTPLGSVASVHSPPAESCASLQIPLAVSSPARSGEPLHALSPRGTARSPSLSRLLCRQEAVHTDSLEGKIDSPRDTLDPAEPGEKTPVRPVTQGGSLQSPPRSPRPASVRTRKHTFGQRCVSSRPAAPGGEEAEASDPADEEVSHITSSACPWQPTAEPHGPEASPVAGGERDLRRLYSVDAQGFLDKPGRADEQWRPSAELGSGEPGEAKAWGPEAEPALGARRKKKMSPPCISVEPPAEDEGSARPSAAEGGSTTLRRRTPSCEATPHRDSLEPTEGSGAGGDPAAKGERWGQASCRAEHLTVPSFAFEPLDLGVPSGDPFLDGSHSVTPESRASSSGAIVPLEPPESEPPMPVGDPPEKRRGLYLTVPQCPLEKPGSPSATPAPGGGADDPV

Row | SMILES | IC50
1 | Cc1nn(C)c2ccc(CC(=O)Nc3cnn(Cc4ccc(OC(F)(F)F)c(F)c4)n3)cc12 [Example 191, 2-(1,3-Dimethyl-1H-indazol-5-yl)-N-[2-(3-fluoro-4-trifluoromethoxy-benzyl)-2H-[1,2,3]triazol-4-yl]-acetamide] | 11 nM
2 | CC(C)(C)c1ccc(CC(=O)Nc2cnn(Cc3ccc(C#N)cn3)n2)cc1 [Example 244, 2-(4-tert-Butyl-phenyl)-N-[2-(5-cyano-pyridin-2-ylmethyl)-2H-[1,2,3]triazol-4-yl]-acetamide] | 34 nM
3 | COc1ccc(Cn2ncc(NC(=O)Cc3ccc4c(cnn4C)c3)n2)cc1 [Example 63, N-[2-(4-Methoxy-benzyl)-2H-[1,2,3]triazol-4-yl]-2-(1-methyl-1H-indazol-5-yl)-acetamide] | 160 nM
4 | N#Cc1ccc(Cn2ncc(NC(=O)Cc3cnc(N4CCCC4)c(F)c3)n2)nc1 [Example 247, N-[2-(5-Cyano-pyridin-2-ylmethyl)-2H-[1,2,3]triazol-4-yl]-2-(5-fluoro-6-pyrrolidin-1-yl-pyridin-3-yl)-acetamide] | 690 nM
5 | N#Cc1ccc(Cn2ncc(NC(=O)Cc3ccc(OC4CC(F)(F)C4)cc3)n2)nc1 [Example 246, N-[2-(5-Cyano-pyridin-2-ylmethyl)-2H-[1,2,3]triazol-4-yl]-2-[4-(3,3-difluoro-cyclobutoxy)-phenyl]-acetamide] | 680 nM
6 | CC(C)c1ccc(CC(=O)Nc2cnn(Cc3ccc(F)c(C#N)c3)n2)cc1 [Example 174, N-[2-(3-Cyano-4-fluoro-benzyl)-2H-[1,2,3]triazol-4-yl]-2-(4-isopropyl-phenyl)-acetamide] | 28 nM
7 | CCN(CC)c1ccc(CC(=O)Nc2cnn(Cc3ccc(F)cc3)n2)cn1 [Example 95, 2-(6-Diethylamino-pyridin-3-yl)-N-[2-(4-fluoro-benzyl)-2H-[1,2,3]triazol-4-yl]-acetamide] | 46 nM
8 | COC1(c2ccc(CC(=O)Nc3cnn(Cc4ccc(C)c(C#N)c4)n3)cc2)COC1 [Example 206, N-[2-(3-Cyano-4-methyl-benzyl)-2H-[1,2,3]triazol-4-yl]-2-[4-(3-methoxy-oxetan-3-yl)-phenyl]-acetamide] | 900 nM
9 | O=C(Cc1ccc(N2CCCC2)nc1)Nc1cnn(Cc2ccc(F)cc2)n1 [Example 55, N-[2-(4-Fluoro-benzyl)-2H-[1,2,3]triazol-4-yl]-2-(6-pyrrolidin-1-yl-pyridin-3-yl)-acetamide] | 50 nM
10 | O=C(Cc1ccc(N2CCC(F)(F)C2)nc1)Nc1cnn(Cc2ccc(F)cc2)n1 [Example 94, 2-[6-(3,3-Difluoro-pyrrolidin-1-yl)-pyridin-3-yl]-N-[2-(4-fluoro-benzyl)-2H-[1,2,3]triazol-4-yl]-acetamide] | 10 nM
11 | Cc1cc(Cn2ncc(NC(=O)Cc3ccc(N4CCC(F)(F)C4)nc3)n2)ccc1C#N [Example 167, N-[2-(4-Cyano-3-methyl-benzyl)-2H-[1,2,3]triazol-4-yl]-2-[6-(3,3-difluoro-pyrrolidin-1-yl)-pyridin-3-yl]-acetamide] | 22 nM
12 | Cc1cc(Cn2ncc(NC(=O)Cc3ccc4c(c3)c(C)nn4C)n2)ccc1C#N [Example 169, N-[2-(4-Cyano-3-methyl-benzyl)-2H-[1,2,3]triazol-4-yl]-2-(1,3-dimethyl-1H-indazol-5-yl)-acetamide] | 96 nM
13 | COc1cc(Cn2ncc(NC(=O)Cc3ccc(N4CCCC4)nc3)n2)cc(F)c1F [Example 221, N-[2-(3,4-Difluoro-5-methoxy-benzyl)-2H-[1,2,3]triazol-4-yl]-2-(6-pyrrolidin-1-yl-pyridin-3-yl)-acetamide] | 160 nM
14 | COC1(c2ccc(CC(=O)Nc3cnn(Cc4ccc(F)c(F)c4)n3)cc2)COC1 [Example 20, N-[2-(3,4-Difluoro-benzyl)-2H-[1,2,3]triazol-4-yl]-2-[4-(3-methoxy-oxetan-3-yl)-phenyl]-acetamide] | 89 nM
15 | O=C(Cc1ccc(N2CCC(F)(F)C2)nc1)Nc1cnn(Cc2ccc(OC(F)(F)F)c(F)c2)n1 [Example 189, 2-[6-(3,3-Difluoro-pyrrolidin-1-yl)-pyridin-3-yl]-N-[2-(3-fluoro-4-trifluoromethoxy-benzyl)-2H-[1,2,3]triazol-4-yl]-acetamide] | 17 nM
16 | Cc1cc(CC(=O)Nc2cnn(Cc3ccc(C#N)cn3)n2)ccc1OCC(F)(F)F [Example 242, N-[2-(5-Cyano-pyridin-2-ylmethyl)-2H-[1,2,3]triazol-4-yl]-2-[3-methyl-4-(2,2,2-trifluoro-ethoxy)-phenyl]-acetamide] | 54 nM
17 | N#Cc1ccc(Cn2ncc(NC(=O)Cc3cnc(N4CCCC4)c(F)c3)n2)cc1F [Example 161, N-[2-(4-Cyano-3-fluoro-benzyl)-2H-[1,2,3]triazol-4-yl]-2-(5-fluoro-6-pyrrolidin-1-yl-pyridin-3-yl)-acetamide] | 25 nM
18 | COc1ccc(Cn2ncc(NC(=O)Cc3ccc(C4(C(F)(F)F)CC4)cc3)n2)cc1F [Example 124, N-[2-(3-Fluoro-4-methoxy-benzyl)-2H-[1,2,3]triazol-4-yl]-2-[4-(1-trifluoromethyl-cyclopropyl)-phenyl]-acetamide] | 250 nM
19 | COc1cc(Cn2ncc(NC(=O)Cc3ccc(C(C)(C)C)cc3)n2)ccc1C#N [Example 239, 2-(4-tert-Butyl-phenyl)-N-[2-(4-cyano-3-methoxy-benzyl)-2H-[1,2,3]triazol-4-yl]-acetamide] | 210 nM
20 | CC1(c2ccc(CC(=O)Nc3cnn(Cc4ccc(F)cc4)n3)cc2)COC1 [Example 53, N-[2-(4-Fluoro-benzyl)-2H-[1,2,3]triazol-4-yl]-2-[4-(3-methyl-oxetan-3-yl)-phenyl]-acetamide] | 35 nM

The remaining molecules from weak to strong by IC50, led by results:

Row | IC50 | SMILES
21 | 480 nM | Cn1ncc2ccc(CC(=O)Nc3cnn(Cc4ccc(C#N)cc4)n3)cc21 [Example 101, N-[2-(4-Cyano-benzyl)-2H-[1,2,3]triazol-4-yl]-2-(1-methyl-1H-indazol-6-yl)-acetamide]
22 | 340 nM | N#Cc1ccc(Cn2ncc(NC(=O)Cc3ccc(OCC4(F)COC4)cc3)n2)cc1 [Example 194, N-[2-(4-Cyano-benzyl)-2H-[1,2,3]triazol-4-yl]-2-[4-(3-fluoro-oxetan-3-ylmethoxy)-phenyl]-acetamide]
23 | 330 nM | Cc1cc(Cn2ncc(NC(=O)Cc3ccc4cnn(C)c4c3)n2)ccc1C#N [Example 163, N-[2-(4-Cyano-3-methyl-benzyl)-2H-[1,2,3]triazol-4-yl]-2-(1-methyl-1H-indazol-6-yl)-acetamide]
24 | 310 nM | Cc1ccc(Cn2ncc(NC(=O)Cc3ccc(C4(F)COC4)cc3)n2)cc1C#N [Example 201, N-[2-(3-Cyano-4-methyl-benzyl)-2H-[1,2,3]triazol-4-yl]-2-[4-(3-fluoro-oxetan-3-yl)-phenyl]-acetamide]
25 | 290 nM | COc1ccc(Cn2ncc(NC(=O)Cc3ccc4cnn(C)c4c3)n2)cc1F [Example 121, N-[2-(3-Fluoro-4-methoxy-benzyl)-2H-[1,2,3]triazol-4-yl]-2-(1-methyl-1H-indazol-6-yl)-acetamide]
26 | 160 nM | COc1ccc(Cn2ncc(NC(=O)Cc3ccc(N4CCCC4)nc3)n2)cc1C#N [Example 236, N-[2-(3-Cyano-4-methoxy-benzyl)-2H-[1,2,3]triazol-4-yl]-2-(6-pyrrolidin-1-yl-pyridin-3-yl)-acetamide]
27 | 120 nM | O=C(Cc1ccc2[nH]nc(C3CC3)c2c1)Nc1cnn(Cc2ccc(F)c(F)c2)n1 [Example 29, 2-(3-Cyclopropyl-1H-indazol-5-yl)-N-[2-(3,4-difluoro-benzyl)-2H-[1,2,3]triazol-4-yl]-acetamide]
28 | 91 nM | CC(C)(c1ccc(CC(=O)Nc2cnn(Cc3ccc(C#N)c(F)c3)n2)cc1)C(F)(F)F [Example 249, N-[2-(4-Cyano-3-fluoro-benzyl)-2H-[1,2,3]triazol-4-yl]-2-[4-(2,2,2-trifluoro-1,1-dimethyl-ethyl)-phenyl]-acetamide]
29 | 38 nM | COc1ccc(Cn2ncc(NC(=O)Cc3ccc4c(ccn4C)c3)n2)cc1 [Example 57, N-[2-(4-Methoxy-benzyl)-2H-[1,2,3]triazol-4-yl]-2-(1-methyl-1H-indol-5-yl)-acetamide]
30 | 37 nM | CC(C)(C)c1ccc(CC(=O)Nc2cnn(Cc3ccc(C#N)c(F)c3)n2)cc1 [Example 73, 2-(4-tert-Butyl-phenyl)-N-[2-(4-cyano-3-fluoro-benzyl)-2H-[1,2,3]triazol-4-yl]-acetamide]
31 | 31 nM | CN(CC1CC1)c1ccc(CC(=O)Nc2cnn(Cc3ccc(F)c(F)c3)n2)cn1 [Example 12, 2-[6-(Cyclopropylmethyl-methyl-amino)-pyridin-3-yl]-N-[2-(3,4-difluoro-benzyl)-2H-[1,2,3]triazol-4-yl]-acetamide]
32 | 31 nM | CCOc1ccc(Cn2ncc(NC(=O)Cc3ccc(C4(C)COC4)cc3)n2)cc1 [Example 42, N-[2-(4-Ethoxy-benzyl)-2H-[1,2,3]triazol-4-yl]-2-[4-(3-methyl-oxetan-3-yl)-phenyl]-acetamide]
33 | 30 nM | CC(C)c1ccc(CC(=O)Nc2cnn(Cc3ccc(F)c(F)c3)n2)cc1 [Example 5, N-[2-(3,4-Difluoro-benzyl)-2H-[1,2,3]triazol-4-yl]-2-(4-isopropyl-phenyl)-acetamide]
34 | 26 nM | CC(C)(C)c1ccc(CC(=O)Nc2cnn(Cc3ccc(F)cc3)n2)cc1 [Example 54, 2-(4-tert-Butyl-phenyl)-N-[2-(4-fluoro-benzyl)-2H-[1,2,3]triazol-4-yl]-acetamide]
35 | 22 nM | Cn1ncc2cc(CC(=O)Nc3cnn(Cc4ccc(OC(F)F)c(F)c4)n3)ccc21 [Example 179, N-[2-(4-Difluoromethoxy-3-fluoro-benzyl)-2H-[1,2,3]triazol-4-yl]-2-(1-methyl-1H-indazol-5-yl)-acetamide]
36 | 15 nM | CC1(c2ccc(CC(=O)Nc3cnn(Cc4ccc(F)c(F)c4)n3)cc2)COC1 [Example 22, N-[2-(3,4-Difluoro-benzyl)-2H-[1,2,3]triazol-4-yl]-2-[4-(3-methyl-oxetan-3-yl)-phenyl]-acetamide]
37 | 9.8 nM | CCn1ncc2cc(CC(=O)Nc3cnn(Cc4ccc(F)c(F)c4)n3)ccc21 [Example 27, N-[2-(3,4-Difluoro-benzyl)-2H-[1,2,3]triazol-4-yl]-2-(1-ethyl-1H-indazol-5-yl)-acetamide]
